How the values were obtained:
Experiment in all cases: relative viability (nuclei count vs DMSO), 5 days (fraction); higher = more cells survive
AZ3146 + Navitoclax = compound: CN1CCC(CC1)OC2=CC(=C(C=C2)NC3=NC=C4C(=N3)N(C(=O)N4C)C5CCCC5)OC [AZ3146] + CC1(C)CCC(c2ccc(Cl)cc2)=C(CN2CCN(c3ccc(C(=O)NS(=O)(=O)c4ccc(N[C@H](CCN5CCOCC5)CSc5ccccc5)c(S(=O)(=O)C(F)(F)F)c4)cc3)CC2)C1 [Navitoclax] (partner 0.5 µM)
Summary of the method: (§1)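 Relative viability equals treated-well nuclei counts divided by vehicle-well nuclei counts. Counts came from 4× images of lung cancer cell lines grown in 1536-well plates for 5 days after pin-tool dosing on the day after seeding. Dosing used one drug alone or a fixed anchor-drug dose plus five library-drug doses (not always all listed) in √10 steps, and values are medians of duplicate plates.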

GSK-J4 + Phenformin = compound: CCOC(=O)CCNc1cc(N2CCc3ccccc3CC2)nc(-c2ccccn2)n1 [GSK-J4] + N=C(N)NC(=N)NCCc1ccccc1 [Phenformin] (partner 250 µM)
Summary of the method: as §1

GSK-J4 + Trametinib = compound: CCOC(=O)CCNc1cc(N2CCc3ccccc3CC2)nc(-c2ccccn2)n1 [GSK-J4] + CC(=O)Nc1cccc(-n2c(=O)n(C3CC3)c(=O)c3c(Nc4ccc(I)cc4F)n(C)c(=O)c(C)c32)c1 [Trametinib] (partner 0.02 µM)
Summary of the method: as §1

GSK-J4 + Decitabine = compound: CCOC(=O)CCNc1cc(N2CCc3ccccc3CC2)nc(-c2ccccn2)n1 [GSK-J4] + Nc1ncn([C@H]2C[C@H](O)[C@@H](CO)O2)c(=O)n1 [Decitabine] (partner 2 µM)
Summary of the method: as §1

| Cell Line | relative viability (AZ3146 + Navitoclax; first compound 0.08 µM) | relative viability (AZ3146 + Navitoclax; first compound 0.253 µM) | relative viability (AZ3146 + Navitoclax; first compound 0.8 µM) | relative viability (AZ3146 + Navitoclax; first compound 2.53 µM) | relative viability (AZ3146 + Navitoclax; first compound 8 µM) | relative viability (GSK-J4 + Phenformin; first compound 0.5 µM) | relative viability (GSK-J4 + Phenformin; first compound 1.581 µM) | relative viability (GSK-J4 + Phenformin; first compound 5 µM) | relative viability (GSK-J4 + Phenformin; first compound 15.81 µM) | relative viability (GSK-J4 + Phenformin; first compound 50 µM) | relative viability (GSK-J4 + Trametinib; first compound 0.5 µM) | relative viability (GSK-J4 + Trametinib; first compound 1.581 µM) | relative viability (GSK-J4 + Trametinib; first compound 5 µM) | relative viability (GSK-J4 + Trametinib; first compound 15.81 µM) | relative viability (GSK-J4 + Trametinib; first compound 50 µM) | relative viability (GSK-J4 + Decitabine; first compound 0.5 µM) | relative viability (GSK-J4 + Decitabine; first compound 1.581 µM) | relative viability (GSK-J4 + Decitabine; first compound 5 µM) | relative viability (GSK-J4 + Decitabine; first compound 15.81 µM) | relative viability (GSK-J4 + Decitabine; first compound 50 µM) |
| --- | --- | --- | --- | --- | --- | --- | --- | --- | --- | --- | --- | --- | --- | --- | --- | --- | --- | --- | --- | --- |
| HCC-827 | 0.964 | 1.02 | 0.997 | 1.02 | 0.998 | 0.366 | 0.383 | 0.426 | 0.355 | 0.398 | 0.566 | 0.58 | 0.72 | 0.448 | 0.513 | 0.345 | 0.31 | 0.482 | 0.292 | 0.31 |
| HARA | 1.13 | 1.08 | 1.13 | 1.13 | 1.11 | 0.455 |  |  | 0.396 | 0.386 | 0.6 | 0.799 |  | 0.516 | 0.471 | 0.506 | 0.49 |  | 0.506 | 0.369 |
| NCI-H2087 | 1.04 | 1.06 | 1.08 | 1.05 | 0.968 | 0.466 |  | 0.541 | 0.452 | 0.456 | 0.189 | 0.171 | 0.257 | 0.169 | 0.222 | 0.312 | 0.218 | 0.353 | 0.224 | 0.249 |
| NCI-H2405 | 0.836 |  | 1 | 0.859 | 1.08 | 0.442 | 0.386 |  | 0.335 | 0.366 | 0.586 | 0.63 |  | 0.48 | 0.749 | 0.719 | 0.781 |  | 0.689 | 0.757 |
| NCI-H2170 | 0.705 | 0.528 | 0.632 | 0.576 | 0.645 | 0.38 | 0.352 | 0.341 | 0.387 | 0.275 | 0.852 | 0.882 | 0.958 | 0.872 | 0.829 | 0.453 | 0.422 | 0.459 | 0.463 | 0.464 |
| NCI-H1793 | 0.437 | 0.311 | 0.46 | 0.492 | 0.436 | 0.446 | 0.29 | 0.281 | 0.294 | 0.228 | 0.432 | 0.375 | 0.336 | 0.28 | 0.228 | 0.394 | 0.371 | 0.305 | 0.204 | 0.196 |
| NCI-H647 | 1.06 | 1.07 | 1.16 | 1.1 | 0.893 | 0.618 | 0.398 | 0.415 | 0.498 | 0.532 | 0.521 | 0.393 | 0.357 | 0.445 | 0.499 | 0.376 | 0.393 | 0.374 | 0.337 | 0.496 |
| NCI-H596 | 1.02 | 0.884 | 0.9 | 0.95 | 0.929 | 0.821 | 0.67 | 0.626 | 0.633 | 0.732 | 0.797 | 0.759 | 0.639 | 0.725 | 0.771 | 0.923 | 1.03 | 0.906 | 0.773 | 1.02 |
| EMC-BAC-2 | 1.07 | 1.23 | 1.25 | 1.21 | 1.26 | 0.502 | 0.471 | 0.267 | 0.51 | 0.34 | 0.901 | 0.819 |  | 0.777 | 0.831 | 1 | 0.862 |  | 0.947 | 0.869 |
| SK-MES-1 | 1.32 | 1.22 | 1.3 | 1.35 | 1.35 | 0.582 | 0.585 | 0.594 | 0.565 | 0.371 | 0.56 | 0.582 | 0.497 | 0.489 | 0.478 | 0.389 | 0.359 | 0.386 | 0.321 | 0.323 |
| H3255 | 0.527 | 0.35 | 0.582 | 0.628 | 0.467 | 0.331 | 0.381 | 0.36 | 0.312 | 0.365 | 0.656 |  | 0.53 | 0.48 | 0.541 | 0.619 |  | 0.593 | 0.463 | 0.409 |
| NCI-H1651 | 1.03 | 1.07 | 1 | 0.995 | 1.1 | 0.294 | 0.308 | 0.348 | 0.384 | 0.392 | 0.761 | 0.785 | 0.898 | 0.79 | 0.772 | 0.599 | 0.622 | 0.599 | 0.537 | 0.508 |
| NCI-H1395 | 1.21 | 0.924 | 0.985 | 1.09 | 1.18 | 0.418 | 0.459 | 0.372 | 0.421 | 0.443 | 1.04 | 0.919 | 1.02 | 0.806 | 0.854 | 0.781 | 0.718 | 0.632 | 0.751 | 0.661 |
| NCI-H23 | 0.751 | 0.687 | 0.786 | 0.86 | 0.993 | 0.71 | 0.723 | 0.627 | 0.648 | 0.671 | 0.354 | 0.367 | 0.393 | 0.285 | 0.34 | 0.261 | 0.271 | 0.303 | 0.279 | 0.282 |

Source: the supplement of paper PMC10307832
